In US20150342901A1, “COMPOSITION COMPRISING NATURAL POLYPHENOL COMPOUNDS, AND COMPOSITION FOR ORAL ADMINISTRATION COMPRISING SAME” (SAMSUNG FINE CHEMICALS CO., LTD., priority 2012, published 2015):
Converted amounts (≈) assume the structure as drawn.

Test: Solubility of poorly water-soluble natural polyphenolic compound (PSNPPC) in water
Format: physicochemical
Settings: for solubility: PSNPPC alone, solubility = amount (mg) of solute that dissolves in 1 mL of water at 37° C.
Procedure: In the present specification. “solubility” refers to an amount (mg) of a solute (PSNPPC) that dissolves in 1 mL of water at 37° C., which is similar to a human body temperature.
Solubility of 3 types of poorly water-soluble natural polyphenolic compounds (PSNPPC) (a product of Naturex SA of France) were measured, and the results thereof are shown in Table 1.

For silymarin, the “Solubility (@37° C.)” value was 0.008.
`COc1cc(/C=C/C(=O)CC(=O)/C=C/c2ccc(O)c(OC)c2)ccc1O` [Curcumin, curcumin] showed a solubility of 4 µg/mL (≈ 10.9 µM).
With `Oc1ccc(C=Cc2cc(O)cc(O)c2)cc1` [Resveratrol, resveratrol] the solubility was 87 µg/mL (≈ 381 µM).
